From paper PMC6213047, “Design of Antibacterial Agents: Alkyl Dihydroxybenzoates against Xanthomonas citri subsp. citri” (International Journal of Molecular Sciences, 2018)
Like-named read-outs stand apart in the source and are kept apart here.

Columns and labels:
[1] = system: X. citri subsp. citri strain 306 (IBSBF 1594); test: MIC by Resazurin Microtiter Assay (REMA); assay type: cell-based, Xanthomonas citri subsp. citri; conditions: Xanthomonas citri, 12 h, REMA, NYG medium, 29 °C
Protocol: The antibacterial potential of carboxylic acids and their esters were compared to copper oxychloride (a commercial active often used to combat citrus canker). Minimal inhibitory concentration (MIC) values were determined by REMA assay, which measures cellular respiratory activity.
(§1) The antibacterial activity of alkyl dihydroxybenzoates and the determination of minimum inhibition concentration (MIC) were performed by the fluorimetric method Resazurin Microtiter Assay (REMA) with some modifications. An overnight culture of X. citri subsp. citri strain 306 (IBSBF 1594) was grown in 20 mL in Nitrogen Yeast Glycerol (NYG) at 29 °C in constant agitation of 180–200 rpm. After 12 h, the Xcc inoculum was dispersed in NYG medium and distributed into a 96 well microtiter plate to a final volume of 100 μL per well (10^5 CFU per well). Stock solutions of tested compounds at 10 mg mL^−1 were prepared in dimethyl sulfoxide (DMSO) and dispersed in NYG medium to obtain 1% DMSO and the final compound concentration range of 0.78–100 μg mL^−1. The negative control was constituted of 100 μL culture medium. In addition, the copper oxychloride was tested as a comparison to alkyl dihydroxybenzoates and kanamycin (20 μg mL^−1), which was used as a control antibiotic. The plate was subsequently incubated at 29 °C for 12 h, and 15 μg mL^−1 freshly prepared resazurin solution in water was added to each well, and the plate was incubated for 2 h. The fluorescence was determined on a Synergy H1 (BioTek, Winooski, VT, USA) microplate reader using the excitation and emission filters at wavelengths of 530 and 590 nm respectively. After the REMA assay, the minimum bactericidal concentration (CBM) assay was performed using a 96-pin stainless steel plate replicator, accurately transferring the wells from the REMA plate to Petri dishes Petri dishes were incubated in oven B.O.D. at 29 °C for 24 to 48 h. The experiments were performed in triplicate.

[2] = system: X. citri subsp. citri strain 306 (IBSBF 1594); test: MBC, REMA plates replicated to Petri dishes; assay type: cell-based, Xanthomonas citri subsp. citri; conditions: Xanthomonas citri; Petri dishes from REMA plates, 29 °C, 24 to 48 h; read-out: MBC
Protocol: The minimal bactericidal concentration (MBC) was determined by observing the bacterial growth in Petri dishes transferred from the REMA plates.
as §1

[3] = system: HaCaT (human keratinocyte cell line); test: Cytotoxicity MTT assay, HaCaT; assay type: cell-based
Protocol: (§2) This test is based on the reduction of 3-(4,5-dimethyl-2-thiazolyl)-2,5-diphenyl-2-tetrazole bromide by viable cells, with formation of violet insoluble formazan crystals. Five cell lines were used in order to evaluate the cytotoxic effect of the compounds as a whole.
(§3) The cytotoxicity of compounds 4, 16, 28 and copper oxychloride was determined by MTT assay. The cell lines used were HaCaT (human keratinocyte cell line—CLS 300493), Huh-7.5 (human hepatoma cell line—ATCC® PTA-8561), MRC-5 (human lung fibroblast cell line—ATCC CCL-171), VERO (monkey kidney epithelial cell line—ATCC® CCL81) and ACHN (human renal adenocarcinoma cell line—ATCC® CRL1611). The cells were cultured in appropriate medium recommended by the American Type Culture Collection.
(§4) The assay was performed with the concentration of 10^4 cells for both cell lines, distributed in 96-well plates and incubated at 37 °C in a 5% CO2 controlled atmosphere oven for 24 h. After the incubation period, the cells were treated with the compounds with a range of 1.56–200 μmol L^−1 and incubated for 24 h. The supernatant was removed, then 100 μL of 3-(4,5-dimethyl-2-thiazolyl)-2,5-diphenyl-2H-tetrazolium (MTT) salt at 1 mg mL^−1 diluted in DMEM medium (Gibco Life Technologies, Gaithersburg, MD, USA) was added and incubated for 30 min. Subsequently, the MTT was removed, then 100 μL of DMSO under agitation for 5 min at 60 rpm was added. The plates were read at 570 nm in a FLUOstar Omega/BMG LABTECH plate reader, Offenburg, BW, DE. We carried out the experiments in triplicate and three independent events for statistical analysis (GraphPad Software, San Diego, CA, USA). The MTT assay is based on the tetrazolium salt (yellow-colored) reduction to formazan (purple-colored) by metabolically active cells.

[4] = system: Huh-7.5 (human hepatoma cell line); test: Cytotoxicity MTT assay, Huh-7.5; assay type: cell-based
Protocol: as §2, §3, §4

[5] = system: MRC-5 (human lung fibroblast cell line); test: Cytotoxicity MTT assay, MRC-5; assay type: cell-based
Protocol: as §2, §3, §4

[6] = system: Xcc cells membrane integrity; test: Cellular membrane permeability of Xcc, Live/Dead BacLight kit; assay type: cell-based, Xanthomonas citri subsp. citri; conditions: compounds at ¼ MIC, 15 min; nisin as positive control
Protocol: Membrane integrity was measured by using the commercial assay Live/Dead BacLight® bacterial viability kit (Invitrogen, Carlsbad, CA, USA). We observed cells with intact membrane in fluorescent blue (SYTO 9) and cells with disturbance or affected membrane integrity in red or pink (propidium iodide). The data analyses were plotted as the percentage of cells permeated by propidium iodide (Figure 2).
Phase contrast microscopy was used to observe changes in cell shape and signs of cell division alteration using an objective lens with a magnification of 100×. To evaluate the Xcc cells’ membrane integrity, the BacLight® kit was used. Mixtures of SYTO 9 dyes and propidium iodide (PI). SYTO 9 (blue) can stain nucleic acids in general—with intact or damaged membranes. On the other hand, PI (red) penetrates only the bacteria with damaged membranes, causing overlap in the fluorescence of SYTO 9. Therefore, using a mixture of the dyes, the bacteria with disturbed cell membranes are stained in fluorescent red and the intact cell membranes are stained in fluorescent blue. […] Cellular immobilization was performed on slides containing 1% agarose gel in 0.85% saline buffer. The slides were prepared with 1.0 mL of the agarose solution, which was dispersed in optical microscopy slides and on each slide another slide was placed so that the gel continued like a thin film and was of homogeneous height. The slides were dried at room temperature for approximately 20 min and opened at the time of use, when 10 μL of the cell suspension was deposited in the center and covered with the cover slip. The cells were visualized using the Olympus BX-61 optical microscope equipped with OrcaFlash 2.8 monochrome camera (Hamamatsu, Shizuoka, Japan). Cell Sensation software v11 (Olympus) was used to document and analyze the images.

[7] = Homo sapiens, HaCaT, 24 h, read-out: IC50 HaCaT, MTT, 24 h treatment
[8] = MTT, 24 h treatment, read-out: IC50 HaCaT
[9] = Homo sapiens, Huh7.5, 24 h, read-out: IC50 Huh-7,5, MTT, 24 h treatment
[10] = MTT, 24 h treatment, read-out: IC50 Huh-7,5
[11] = Homo sapiens, MRC5, 24 h, read-out: IC50 MRC-5, MTT, 24 h treatment
[12] = MTT, 24 h treatment, read-out: IC50 MRC-5

With `CCCCCCCOC(=O)c1ccc(O)cc1O` [Compound 4] as the molecule, how does the MIC ([1]; read-out: MIC in μM) read?
The MIC was 52 µM.

And the MBC [2]?
Its MBC is 25 µg/mL.

What about the IC50 [3, 7] of the same molecule?
The IC50 was ~70 µM.

And the IC50 [3, 8]?
Its IC50 is 64.9 ± 8.91 µM.

What about the IC50 [4, 9] of the same molecule?
Its IC50 is ~70 µM.

And the IC50 [4, 10]?
Its IC50 is 70.6 ± 5.52 µM.

And the IC50 [5, 11]?
The IC50 was > 100 µM.

What about the IC50 [5, 12] of the same molecule?
The IC50 was 127 ± 4.59 µM.

And the “percentage of cells permeated by propidium iodide” value [6]?
The value was 13.9%.

What does the source list for `CCCCCCCOC(=O)c1ccc(O)c(O)c1` [Compound 28]?
MIC ([1]; read-out: MIC): 22.2 µg/mL; MIC ([1]; read-out: MIC in μM): 88 µM; MBC [2]: 50 µg/mL; IC50 [3, 7]: ~70 µM; IC50 [3, 8]: 74 ± 11.7 µM; IC50 [4, 9]: ~70 µM; IC50 [4, 10]: 64.8 ± 14.9 µM; IC50 [5, 11]: > 100 µM; IC50 [5, 12]: 129 ± 2.12 µM; percentage of cells permeated by propidium iodide [6]: 93.8%

Which MIC ([1]; read-out: MIC in μM) does the source give for `CCCCCCCOC(=O)c1cc(O)ccc1O` [Compound 16] here?
Its MIC is 80 µM.

What about the MBC [2] of the same molecule?
Its MBC is 25 µg/mL.

What about the IC50 [3, 7] of the same molecule?
Its IC50 is ~70 µM.

And the IC50 [3, 8]?
Its IC50 is 69.8 ± 4.87 µM.

What about the IC50 ([4]; Homo sapiens, Huh7.5, 24 h, MTT, 24 h treatment, read-out: IC50 Huh-7,5) of the same molecule?
Its IC50 is 20.6 ± 0.23 µM.

And the IC50 [5, 11]?
The IC50 was > 100 µM.

And the IC50 [5, 12]?
Its IC50 is 145 ± 6.29 µM.

And the “percentage of cells permeated by propidium iodide” value [6]?
The value was 41.3%.
